Like-named read-outs stand apart in the source and are kept apart here.
Tests used:
anergic human T-cells = test: Anergic T-cell activation assessed by IFNγ secretion (ionomycin-induced anergy); format: cell-based; conditions: anergic T-cells re-challenged with anti-CD3 and anti-CD28 for 24 hours, read-out: IFNγ Fold change from baseline
From the text: Peripheral blood mononuclear cells (PBMC) were obtained either: 1) by using Ficoll-Paque™ (GE Healthcare) for separation of peripheral blood hematopoietic cells from buffy coats of healthy human donors; or 2) directly from LeukoPak donations. Total human primary T-cells were isolated from the PBMCs utilizing negative selection with commercial kits following the manufacturer's protocol (Miltenyi Catalog #130-096-535 (i.e., cocktail of antibodies against surface markers CD14, CD15, CD16, CD19, CD34, CD36, CD56, CD123 and CD235a were incubated with the PBMCs before passing the samples by magnetic beads for removal of cells expressing those surface markers) or StemCells Catalog #17951) to yield >95% CD3+ cells assessed by flow cytometry. The cells were activated with immobilized anti-CD3 antibody (OKT3) and soluble anti-CD28 antibody (28.2) for two days at which time they are washed and allowed to rest for three days in the absence of stimulation. They were then treated with ionomycin (Sigma) for 18-24 hours to induce anergy. Following two washes to remove the ionomycin from the samples, Cbl-b inhibitor compounds were added to the cells at the indicated concentrations (e.g. 10, 1.11 and 0.37 μM) and incubated for 1 hour. The cells were then re-challenged with anti-CD3 antibody and anti-CD28 antibody for 24 hours at which point cell free supernatants were collected and assessed for cytokines (e.g., IFNγ) by ELISA (R&D Systems or Peprotech) or Luminex multiplex kits (Procarta Life Technologies) following manufacturer's protocols.
Cbl-b inhibitors were tested to determine their ability to induce or enhance secretion of cytokines from anergic T-cells (e.g. IFNγ), which is indicative of decreased T-cell tolerance.
Readouts were reported as fold change over baseline. Baseline for this study was the measurement obtained from anergic human T-cells stimulated with immobilized anti-CD3 and soluble anti-CD28, wherein the T-cells were not incubated with a Cbl-b inhibitor (Table 7). For IFNγ changes greater than 2.5-fold over baseline were considered a positive response (Table 7). Compounds were ranked into bins according to their readout as follows for IFNγ: A indicates ≤2.50, B indicates 2.51-4.00 and C indicates >4.01.

primary human NK cells = test: NK cell activation assessed by cytokine secretion (coculture with K562 NucRed target cells); format: cell-based; conditions: for fold induction at 0.625 µM: 0.625 μM compound; for fold induction at 2.5 µM: 2.5 μM compound
Method in brief: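 Read-out is cytokine secretion (IFNγ, TNFα, MIP1β; ELISA or Luminex) as fold over coculture without inhibitor, >2.0-fold taken as positive. Donor NK cells, IL-2 primed (60 ng/mL) overnight, received compound 1 h ahead (e.g. 0.1–10 μM, DMSO <0.1%) and were mixed 6 h with K562 NucRed targets at e.g. 5:1, 1:1, 1:5.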

[1] = K562, NK cells cocultured with K562 NucRed, 1:1 E/T, read-out: IFNγ secretion, fold change over baseline
[2] = K562, NK cells cocultured with K562 NucRed, 1:1 E/T, read-out: TNFα secretion, fold change over baseline
[3] = K562, NK cells cocultured with K562 NucRed, 1:1 E/T, 10 μM compound, read-out: IFNγ secretion, fold change over baseline
[4] = K562, NK cells cocultured with K562 NucRed, 1:1 E/T, 10 μM compound, read-out: TNFα secretion, fold change over baseline
[5] = K562, 1:1 E/T, read-out: IFNγ secretion
[6] = K562, 1:1 E/T, read-out: MIP1β secretion
[7] = K562, 1:1 E/T, read-out: TNFα secretion
[8] = K562, 1:1 E/T, 10 μM, read-out: IFNγ secretion
[9] = K562, 1:1 E/T, 10 μM, read-out: MIP1β secretion
[10] = K562, 1:1 E/T, 10 μM, read-out: TNFα secretion
[11] = K562, 5:1 E/T, read-out: IFNγ secretion
[12] = K562, 5:1 E/T, read-out: MIP1β secretion
[13] = K562, 5:1 E/T, read-out: TNFα secretion
[14] = K562, 5:1 E/T, 10 μM, read-out: IFNγ secretion
[15] = K562, 5:1 E/T, 10 μM, read-out: MIP1β secretion
[16] = K562, 5:1 E/T, 10 μM, read-out: TNFα secretion

Row | SMILES | fold induction at 0.37 µM (anergic human T-cells) | fold induction at 1.11 µM (anergic human T-cells) | fold induction at 10 µM (anergic human T-cells) | fold induction at 0.625 µM (primary human NK cells; [1]) | fold induction at 0.625 µM (primary human NK cells; [2]) | fold induction at 2.5 µM (primary human NK cells; [1]) | fold induction at 2.5 µM (primary human NK cells; [2]) | fold induction at 10 µM (primary human NK cells; [3]) | fold induction at 10 µM (primary human NK cells; [4]) | further results
1 | C[C@H](Sc1nncn1C)c1cccc(NC(=O)c2cc(C(=O)N3CC[C@H](O)C3)ccn2)c1 [Compound 140, 4-[[(3S)-3-hydroxypyrrolidin-1-yl]carbonyl]-N-[3-[(1S)-1-[(4-methyl-4H-1,2,4-triazol-3-yl)sulfanyl]ethyl]phenyl]pyridine-2-carboxamide] | ≤ 2.5 | ≤ 2.5 | 2.51 to 4 | < 1 | < 1 | < 1 | < 1 | 1.01 to 2 | < 1 | –
2 | C[C@H](Cc1nncn1C)c1cccc(NC(=O)c2ccnc(C(F)(F)F)n2)c1 [Compound 187, (R)-N-(3-(1-(4-methyl-4H-1,2,4-triazol-3-yl)propan-2-yl)phenyl)-2-(trifluoromethyl)pyrimidine-4-carboxamide] | – | – | – | – | – | – | – | – | – | fold induction at 1 µM (primary human NK cells; [5]): 1.01 to 2; fold induction at 1 µM (primary human NK cells; [6]): 1.01 to 2; fold induction at 1 µM (primary human NK cells; [7]): < 1; fold induction at 10 µM (primary human NK cells; [8]): 2.01 to 5; fold induction at 10 µM (primary human NK cells; [9]): 2.01 to 5; fold induction at 10 µM (primary human NK cells; [10]): 2.01 to 5; fold induction at 1 µM (primary human NK cells; [11]): 2.01 to 5; fold induction at 1 µM (primary human NK cells; [12]): 1.01 to 2; fold induction at 1 µM (primary human NK cells; [13]): 2.01 to 5; fold induction at 10 µM (primary human NK cells; [14]): > 5; fold induction at 10 µM (primary human NK cells; [15]): 2.01 to 5; fold induction at 10 µM (primary human NK cells; [16]): > 5
3 | C[C@H](Cc1nncn1C)c1cccc(NC(=O)c2cccc(CCO)n2)c1 [Compound 202, 6-(2-hydroxyethyl)-N-[3-[(2R)-1-(4-methyl-4H-1,2,4-triazol-3-yl)propan-2-yl]phenyl]pyridine-2-carboxamide] | ≤ 2.5 | ≤ 2.5 | 2.51 to 4 | 1.01 to 2 | < 1 | 1.01 to 2 | 1.01 to 2 | 2.01 to 5 | 1.01 to 2 | –
4 | C[C@H](Cc1nncn1C)c1cccc(N2Cc3c(ccnc3C3CC3)C2=O)c1 [Compound 257, 4-cyclopropyl-2-[3-[(1R)-1-methyl-2-(4-methyl-1,2,4-triazol-3-yl)ethyl]phenyl]-3H-pyrrolo[3,4-c]pyridin-1-one] | ≤ 2.5 | ≤ 2.5 | 2.51 to 4 | 1.01 to 2 | 1.01 to 2 | 2.01 to 5 | 1.01 to 2 | 2.01 to 5 | 2.01 to 5 | –
5 | Cn1cnnc1[C@@H]1C[C@@H]1c1cccc(N2Cc3c(cccc3C(F)(F)F)C2=O)c1 [Compound 282, 2-(3-((1S,2R)-2-(4-methyl-4H-1,2,4-triazol-3-yl)cyclopropyl)phenyl)-4-(trifluoromethyl)isoindolin-1-one] | ≤ 2.5 | ≤ 2.5 | ≤ 2.5 | 1.01 to 2 | 1.01 to 2 | 1.01 to 2 | 1.01 to 2 | 2.01 to 5 | 2.01 to 5 | –
6 | Cn1cnnc1C(F)(F)[C@](C)(F)c1cccc(N2Cc3c(cccc3C(F)(F)F)C2=O)c1 [Compound 296a, (R)-2-(3-(1,1,2-trifluoro-1-(4-methyl-4H-1,2,4-triazol-3-yl)propan-2-yl)phenyl)-4-(trifluoromethyl)isoindolin-1-one] | – | – | – | – | – | – | – | – | – | fold induction at 1 µM (primary human NK cells; [5]): 1.01 to 2; fold induction at 1 µM (primary human NK cells; [6]): < 1; fold induction at 1 µM (primary human NK cells; [7]): < 1; fold induction at 10 µM (primary human NK cells; [8]): 2.01 to 5; fold induction at 10 µM (primary human NK cells; [9]): < 1; fold induction at 10 µM (primary human NK cells; [10]): 1.01 to 2; fold induction at 1 µM (primary human NK cells; [11]): < 1; fold induction at 1 µM (primary human NK cells; [12]): < 1; fold induction at 1 µM (primary human NK cells; [13]): < 1; fold induction at 10 µM (primary human NK cells; [14]): 1.01 to 2; fold induction at 10 µM (primary human NK cells; [15]): < 1; fold induction at 10 µM (primary human NK cells; [16]): < 1
7 | C[C@H](Cc1nncn1C)c1ccnc(NC(=O)c2cccc(C(F)(F)F)n2)c1 [Compound 302, (R)-N-(4-(1-(4-methyl-4H-1,2,4-triazol-3-yl)propan-2-yl)pyridin-2-yl)-6-(trifluoromethyl)picolinamide] | ≤ 2.5 | ≤ 2.5 | ≤ 2.5 | < 1 | 1.01 to 2 | 1.01 to 2 | 1.01 to 2 | 2.01 to 5 | 1.01 to 2 | –
8 | C[C@H](Cc1nncn1C)c1cccc(NC(=O)c2nc(C(F)(F)F)c[nH]2)c1 [Compound 326, (R)-N-(3-(1-(4-methyl-4H-1,2,4-triazol-3-yl)propan-2-yl)phenyl)-4-(trifluoromethyl)-1H-imidazole-2-carboxamide] | ≤ 2.5 | ≤ 2.5 | 2.51 to 4 | 1.01 to 2 | 1.01 to 2 | 2.01 to 5 | 2.01 to 5 | 2.01 to 5 | 2.01 to 5 | –
9 | Cn1cnnc1[C@@H]1C[C@@H]1c1cccc(N2Cc3c(ccnc3C(F)(F)F)C2=O)c1 [Compound 369, 2-{3-[(1S,2R)-2-(4-methyl-4H-1,2,4-triazol-3-yl)cyclopropyl]phenyl}-4-(trifluoromethyl)-1H,2H,3H-pyrrolo[3,4-c]pyridin-1-one] | ≤ 2.5 | ≤ 2.5 | 2.51 to 4 | < 1 | < 1 | 1.01 to 2 | < 1 | 2.01 to 5 | 1.01 to 2 | –
10 | Cc1cc2c(c(C3CC3)n1)CN(c1cccc([C@H](C)Cc3nncn3C)c1)C2=O [Compound 372, 4-cyclopropyl-6-methyl-2-{3-[(2R)-1-(4-methyl-4H-1,2,4-triazol-3-yl)propan-2-yl]phenyl}-1H,2H,3H-pyrrolo[3,4-c]pyridin-1-one] | ≤ 2.5 | ≤ 2.5 | 2.51 to 4 | 1.01 to 2 | < 1 | 1.01 to 2 | < 1 | 2.01 to 5 | 1.01 to 2 | –
11 | CNCc1ccc(C(=O)Nc2cccc([C@H](C)Cc3nncn3C)c2)nc1C1CC1 [Compound 376, (R)-6-cyclopropyl-N-(3-(1-(4-methyl-4H-1,2,4-triazol-3-yl)propan-2-yl)phenyl)-5-((methylamino)methyl)picolinamide] | ≤ 2.5 | ≤ 2.5 | > 4.01 | 1.01 to 2 | 1.01 to 2 | 1.01 to 2 | 1.01 to 2 | 2.01 to 5 | 2.01 to 5 | –

— US20220324835A1 (Nurix Therapeutics, Inc., priority 2018, published 2022)
